Results as given in patent US20050175535A1 (CV Therapeutics, Inc., priority 2000, published 2005).

How the values were obtained:
[1] = system: rat isolated perfused heart; experiment: Reversal time of coronary vasodilation in rat isolated perfused hearts; settings: bolus;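 for t0.5, time to 50% reversal of the increase in coronary conductance: each agonist bolused at its minimal concentration giving equal maximal coronary conductance rise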;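 for t0.9, time to 90% reversal of the increase in coronary conductance: each agonist bolused at its minimal concentration giving equal maximal coronary conductance rise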
Procedure: FIG. 10. Reversal of effect of agonist stimulation on CC. […] CC was measured at 8, 16 and 24 minutes after administration (FIG. 10A). […] R and N are the correlation coefficient and number of agonists, respectively.
The relationship between the affinity of agonists for the A2A receptor and the rate of reversal of agonist-mediated responses (coronary vasodilation in heart and cAMP accumulation in PC12 cells) upon termination of drug administration were determined. […] The duration of the coronary vasodilation in isolated rat hearts caused by adenosine, the CVT compounds, and other agonists measured as the time to 50% and 90% (t0.5 and t0.9, respectively) reversal of the increases in coronary conductance after termination of drug administration are summarized in Table 4.

[2] = Coronary and peripheral artery blood flow velocity, HR and MAP in anesthetized closed-chest dogs; format: in vivo; design: APV: unit not given here; settings: for APV / MAP / HR: Ado (200 or 300 ug/kg); for Coronary, maximal folds increase in average peak velocity (APVmax/APVbaseline) / Peripheral, maximal folds increase in average peak velocity (APVmax/APVbaseline): iv injection of CVT-3146 (1 μg/kg) and adenosine (200 or 300 μg/kg)
Procedure: Mongrel dogs (either sex, 17-21 kg; n=6) were obtained from a local vendor (Barton, Oxford, N.J.). Blood flow velocity in the coronary and cranial circumflex arteries was measured using Doppler transducer-tipped guide wires 0.014″ in diameter (FloWire®, model 1400J) purchased from Cardiometrics, Inc., Mountain View, Calif. For the positioning of the FloWire, a Judkins left coronary guiding catheter (JL3.5, 8F; Cordis) was used. Vascular arterial angiography was performed using Hypaque-76 contrast fluid (Bracco Diagnostics, Inc., Princeton, N.J.; Lot #9H28899) and a mobile fluoroscopic unit (Philips, BV 29). Systemic arterial blood pressure was measured using an electronic transducer-tipped catheter (Millar).
Following the administration of heparin (20 U/kg+100 U/hr), the pressure transducer-tipped catheter was introduced through the left femoral artery and positioned in the descending aorta. The Doppler FloWire was introduced through the right femoral artery. A peripheral vein was cannulated for the administration of all drugs. […] The sequence of positioning of the Doppler catheter was reversed in consecutive experiments. […] All parameters were allowed to recover (>30 min) to their respective baseline values between two consecutive drug administrations. […] The effect of adenosine on both coronary and peripheral artery APV was studied in five of the six dogs.
The following parameters were monitored and recorded: Average peak coronary and peripheral artery blood flow velocity (APV), mean arterial blood pressure (MAP) (mmHg), and sinus cycle length (SCL; msec). Differences in measure parameters were tested for statistical significance using ANOVA and Student's t test corrected for multiple measurements. Data are expressed as the mean±SEM.

[3] = CVT-3146 1 μg/kg, adenosine 200 or 300 μg/kg iv bolus, anesthetized dogs
[4] = anesthetized dogs, listed as adenosine

## Nc1ncnc2c1ncn2[C@@H]1O[C@H](CO)[C@@H](O)[C@H]1O [Adenosine, adenosine, reference compound]
[1]; isolated rat hearts, FIG. 10
  duration of the effect on coronary conductance (rank among agonists): shortest
[1]; rat isolated perfused heart
  t0.5, time to 50% reversal of the increase in coronary conductance: 1.6 ± 0.1 min
  t0.9, time to 90% reversal of the increase in coronary conductance: 5.6 ± 0.8 min
[2]; Coronary, time 1′, Baseline 42 ± 5
  APV: 39 ± 8
[2]; Coronary, time 1′, Baseline […] ± 6
  MAP: 113 ± 6 mmHg
[2]; Coronary, time 1′, Baseline 170 ± 10
  HR: 175 ± 5
[2]; Coronary, time 1.5′, Baseline 42 ± 5
  APV: 55 ± 8
[2]; Coronary, time 1.5′, Baseline […] ± 6
  MAP: 117 ± 6 mmHg
[2]; Coronary, time 1.5′, Baseline 170 ± 10
  HR: 171 ± 5
[2]; Coronary, time 2′, Baseline 42 ± 5
  APV: 52 ± 7
[2]; Coronary, time 2′, Baseline […] ± 6
  MAP: 120 ± 6 mmHg
[2]; Coronary, time 2′, Baseline 170 ± 10
  HR: 170 ± 5
[2]; Coronary, time 3′, Baseline 42 ± 5
  APV: 49 ± 6
[2]; Coronary, time 3′, Baseline […] ± 6
  MAP: 125 ± 6 mmHg
[2]; Coronary, time 3′, Baseline 170 ± 10
  HR: 168 ± 8
[2]; Coronary, time 4′, Baseline 42 ± 5
  APV: 47 ± 6
[2]; Coronary, time 4′, Baseline […] ± 6
  MAP: 126 ± 6 mmHg
[2]; Coronary, time 4′, Baseline 170 ± 10
  HR: 164 ± 10
[2]; Coronary, time 5′, Baseline 42 ± 5
  APV: 47 ± 6
[2]; Coronary, time 5′, Baseline […] ± 6
  MAP: 128 ± 6 mmHg
[2]; Coronary, time 5′, Baseline 170 ± 10
  HR: 163 ± 10
[2]; Coronary, time 10″, Baseline 42 ± 5
  APV: 90 ± 10
[2]; Coronary, time 10″, Baseline […] ± 6
  MAP: 126 ± 8 mmHg
[2]; Coronary, time 10″, Baseline 170 ± 10
  HR: 174 ± 7
[2]; Coronary, time 20″, Baseline 42 ± 5
  APV: 85 ± 10
[2]; Coronary, time 20″, Baseline […] ± 6
  MAP: 90 ± 9 mmHg
[2]; Coronary, time 20″, Baseline 170 ± 10
  HR: 166 ± 11
[2]; Coronary, time 30″, Baseline 42 ± 5
  APV: 75 ± 9
[2]; Coronary, time 30″, Baseline […] ± 6
  MAP: 107 ± 9 mmHg
[2]; Coronary, time 30″, Baseline 170 ± 10
  HR: 173 ± 6
[2]; Peripheral, time 1′, Baseline 33 ± 3
  APV: 44 ± 7
[2]; Peripheral, time 1′, Baseline 118 ± 8
  MAP: 105 ± 6 mmHg
[2]; Peripheral, time 1′, Baseline 165 ± 10
  HR: 171 ± 6
[2]; Peripheral, time 1.5′, Baseline 33 ± 3
  APV: 38 ± 4
[2]; Peripheral, time 1.5′, Baseline 118 ± 8
  MAP: 106 ± 7 mmHg
[2]; Peripheral, time 1.5′, Baseline 165 ± 10
  HR: 171 ± 6
[2]; Peripheral, time 2′, Baseline 33 ± 3
  APV: 35 ± 3
[2]; Peripheral, time 2′, Baseline 118 ± 8
  MAP: 110 ± 6 mmHg
[2]; Peripheral, time 2′, Baseline 165 ± 10
  HR: 169 ± 6
[2]; Peripheral, time 3′, Baseline 33 ± 3
  APV: 33 ± 3
[2]; Peripheral, time 3′, Baseline 118 ± 8
  MAP: 115 ± 7 mmHg
[2]; Peripheral, time 3′, Baseline 165 ± 10
  HR: 165 ± 9
[2]; Peripheral, time 4′, Baseline 33 ± 3
  APV: 31 ± 3
[2]; Peripheral, time 4′, Baseline 118 ± 8
  MAP: 119 ± 8 mmHg
[2]; Peripheral, time 4′, Baseline 165 ± 10
  HR: 160 ± 9
[2]; Peripheral, time 5′, Baseline 33 ± 3
  APV: 30 ± 2
[2]; Peripheral, time 5′, Baseline 118 ± 8
  MAP: 121 ± 7 mmHg
[2]; Peripheral, time 5′, Baseline 165 ± 10
  HR: 158 ± 10
[2]; Peripheral, time 10″, Baseline 33 ± 3
  APV: 62 ± 9
[2]; Peripheral, time 10″, Baseline 118 ± 8
  MAP: 107 ± 9 mmHg
[2]; Peripheral, time 10″, Baseline 165 ± 10
  HR: 171 ± 6
[2]; Peripheral, time 20″, Baseline 33 ± 3
  APV: 76 ± 10
[2]; Peripheral, time 20″, Baseline 118 ± 8
  MAP: 85 ± 9 mmHg
[2]; Peripheral, time 20″, Baseline 165 ± 10
  HR: 162 ± 15
[2]; Peripheral, time 30″, Baseline 33 ± 3
  APV: 59 ± 11
[2]; Peripheral, time 30″, Baseline 118 ± 8
  MAP: 87 ± 9 mmHg
[2]; Peripheral, time 30″, Baseline 165 ± 10
  HR: 168 ± 9
[2]; [3]
  duration of >2-fold increase in coronary APV: < 20 s
  time for all parameters to return to baseline post injection: ≤ 10 min
[2]; anesthetized dogs
  Coronary, maximal folds increase in average peak velocity (APVmax/APVbaseline): 2.5 ± 0.3 fold
  Peripheral, maximal folds increase in average peak velocity (APVmax/APVbaseline): 2.0 ± 0.4 fold
[2]; [4]
  Coronary, maximal folds increase in average peak velocity (APVmax/APVbaseline): 2.5±0.3 fold
  Peripheral, maximal folds increase in average peak velocity (APVmax/APVbaseline): 2.0±0.4 fold
